These results are taken from ChEMBL document CHEMBL4052716, “Discovery and development of a novel class of phenoxyacetyl amides as highly potent TRPM8 agonists for use as cooling agents” (Bioorg Med Chem Lett, 2017).

One assay has as its target T1, Transient receptor potential cation channel subfamily M member 8 (Homo sapiens, UniProt Q7Z2W7). Briefly: Potency index, ratio of WS-3 EC50 to compound EC50 for human TRPM8 receptor.
Details: not given; call rule not given here
Target sequence in this assay (Q7Z2W7 whole entry, looked up): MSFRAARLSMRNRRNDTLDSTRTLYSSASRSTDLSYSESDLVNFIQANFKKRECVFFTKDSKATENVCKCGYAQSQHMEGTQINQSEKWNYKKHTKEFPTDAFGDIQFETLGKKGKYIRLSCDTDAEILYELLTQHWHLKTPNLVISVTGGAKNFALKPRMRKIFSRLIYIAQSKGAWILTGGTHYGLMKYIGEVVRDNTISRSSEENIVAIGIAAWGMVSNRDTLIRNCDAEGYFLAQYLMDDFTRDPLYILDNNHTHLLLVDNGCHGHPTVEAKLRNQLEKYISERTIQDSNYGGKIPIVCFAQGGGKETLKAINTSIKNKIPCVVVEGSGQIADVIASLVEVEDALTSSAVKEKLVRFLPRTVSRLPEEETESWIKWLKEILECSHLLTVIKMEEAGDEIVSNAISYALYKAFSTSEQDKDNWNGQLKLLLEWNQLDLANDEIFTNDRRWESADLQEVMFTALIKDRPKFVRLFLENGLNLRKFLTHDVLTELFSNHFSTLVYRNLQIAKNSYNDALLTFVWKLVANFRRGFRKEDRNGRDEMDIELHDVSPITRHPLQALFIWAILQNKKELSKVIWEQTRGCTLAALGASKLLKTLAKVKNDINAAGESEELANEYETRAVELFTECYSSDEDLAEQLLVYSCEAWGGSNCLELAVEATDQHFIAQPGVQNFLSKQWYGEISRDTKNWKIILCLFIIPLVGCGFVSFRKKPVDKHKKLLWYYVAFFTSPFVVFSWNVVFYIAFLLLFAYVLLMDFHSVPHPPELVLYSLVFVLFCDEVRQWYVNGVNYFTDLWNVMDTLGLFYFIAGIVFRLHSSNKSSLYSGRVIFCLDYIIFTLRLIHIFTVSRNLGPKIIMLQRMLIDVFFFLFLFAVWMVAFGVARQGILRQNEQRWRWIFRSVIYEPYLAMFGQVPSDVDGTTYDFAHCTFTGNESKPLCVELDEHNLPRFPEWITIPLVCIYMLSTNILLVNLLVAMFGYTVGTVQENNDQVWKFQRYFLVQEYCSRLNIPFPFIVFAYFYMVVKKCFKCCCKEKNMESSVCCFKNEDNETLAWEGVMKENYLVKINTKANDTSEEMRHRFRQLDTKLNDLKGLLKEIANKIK
For the molecule `CCN(Cc1cccs1)C(=O)C(C)(C)Oc1ccc(C)cc1`, the Ratio EC50 was determined as 0.3.
The same measure, in the same setting: with `Cc1ccc(OCC(=O)N(CCCO)Cc2cccs2)cc1` the figure was 1; with `Cc1ccc(OCC(=O)N(Cc2cccs2)c2ccccc2)cc1`, 197; with `Cc1ccc(OCC(=O)N(Cc2cccs2)c2ncccn2)cc1`, 1.
As for `CCN(Cc1cccs1)C(=O)COc1ccc(CO)cc1`, the Ratio EC50 is 0.2.
Take `CCN(Cc1cc[nH]c1)C(=O)COc1ccc(C)cc1`: the Ratio EC50 is 0.2.
On the same count and under the same terms, with `CCN(Cc1cccs1)C(=O)COc1ccc(C)cc1O` the figure was 650; with `Cc1ccc(OCC(=O)N(Cc2cccs2)c2ccn(C)n2)cc1`, 13; with `CCN(Cc1ccccc1)C(=O)COc1ccc(C)cc1`, 2.
The same measure, in the same setting: with `COc1ccc2oc(C(=O)N(Cc3cccs3)c3ccn[nH]3)cc2c1` the figure was 30900; with `Cc1ccc(OCC(=O)N(Cc2cccs2)c2c(C)n[nH]c2C)cc1`, 14700.
As to `CCN(Cc1cccs1)C(=O)COc1ccccc1C`, the Ratio EC50 is 18.
The same measure, in the same setting: with `COCCN(Cc1cccs1)C(=O)COc1ccc(C)cc1` the figure was 11; with `Cc1ccc(OCC(=O)N(Cc2cccs2)C(C)(C)C)cc1`, 0.4.
The same measure, in the same setting: with `Cc1ccc(OCC(=O)N(Cc2cccs2)c2ccncc2)cc1` the figure was 77.
Still for that read-out and setting: with `Cc1ccc(OCC(=O)N(Cc2cccs2)C(C)C)cc1` the figure was 66.
As to `CCN(Cc1cccs1)C(=O)C[C@H](O)c1ccccc1`, the Ratio EC50 was 0.1.
Still for that read-out and setting: with `CCC(C)N(Cc1cccs1)C(=O)COc1ccc(C)cc1` (configuration not stated) the figure was 2; with `CCN(Cc1cccs1)C(=O)c1cc2cc(C)ccc2[nH]1`, 2; with `Cc1ccc(OCC(=O)N(C)Cc2cccs2)cc1`, 15.
`CCN(Cc1cccnc1)C(=O)COc1ccc(C)cc1`: the Ratio EC50 came to 0.2.
Take `CCN(Cc1cccs1)C(=O)COc1ccccc1`: the Ratio EC50 worked out at 4.
The same measure, in the same setting: with `CCCc1ccc(OCC(=O)N(CC)Cc2cccs2)cc1` the figure was 3.
With `CCN(Cc1nccs1)C(=O)COc1ccc(C)cc1`, the Ratio EC50 was 2.
Take `CCN(Cc1cccs1)C(=O)COc1ccc(Cl)cc1`: the Ratio EC50 came to 93.
For the molecule `Cc1ccc(OCC(=O)N(Cc2cccs2)CC(C)C)cc1`, the Ratio EC50 came to 3.
On the same count and under the same terms, with `CCN(Cc1cncs1)C(=O)COc1ccc(C)cc1` the figure was 4.

In the next assay the target is T1, Transient receptor potential cation channel subfamily M member 8. Briefly: Agonist activity at human TRPM8 expressed in HEK293 cells assessed as increase in intracellular calcium level after 15 mins by Fluo-3-AM dye-based fluorescence assay. Type of assay: cell-based. The settings on record: hek293. Background: Calcium flux is commonly read through the fluorescence of an indicator in the cells.
Target sequence in this assay (Q7Z2W7 whole entry): as the sequence (Q7Z2W7 whole entry, looked up) above
The EC50 is the concentration giving half of the maximal effect. As to `CCN1C(=O)C(Oc2ccc(C)cc2)C1c1cccs1` (configuration not stated), the EC50 entry was “Active”.
Same read-out and setting: with `CCN(Cc1cccs1)C(=O)C[C@@H](O)c1ccccc1` the entry was “Not Active”.
The same measure, in the same setting: with `CCN(Cc1ccncc1)C(=O)COc1ccc(C)cc1` the entry was “Not Active”; with `Cc1ccc(OC2CCN(Cc3cccs3)C2=O)cc1` (configuration not stated), “Not Active”; with `CCN(Cc1cc[nH]n1)C(=O)COc1ccc(C)cc1`, “Not Active”.
As for `CCN(Cc1cccs1)C(=O)COc1ccc(C(=O)O)cc1`, the concentration for a half-maximal effect (EC50) entry was “Not Active”.
On to `CCN(Cc1cn[nH]c1)C(=O)COc1ccc(C)cc1`, for which the EC50 result is “Active”.
For `CCN(C(=O)COc1ccc(C)cc1)C(C)c1cccs1` (configuration not stated), the EC50 result is given as “Not Active”.
Same read-out and setting: with `CCN(Cc1cccs1)C(=O)c1cc2cc(C)ccc2n1C` the entry was “Not Active”.

The assay is the same for the next values; noted with them: read-out: EC50.
`CCN(Cc1cccs1)C(=O)C(C)(C)Oc1ccc(C)cc1`: the concentration for a half-maximal effect (EC50) turned out to be 11000 nM.
On the same count and under the same terms, with `Cc1ccc(OCC(=O)N(CCCO)Cc2cccs2)cc1` the figure was 3000 nM.
The same measure, in the same setting: with `Cc1ccc(OCC(=O)N(Cc2cccs2)c2ccccc2)cc1` the figure was 23 nM; with `Cc1ccc(OCC(=O)N(Cc2cccs2)c2ncccn2)cc1`, 3700 nM.
`CCN(Cc1cccs1)C(=O)COc1ccc(CO)cc1`: the EC50 was found to be 21900 nM.
Consider `CCN(Cc1cc[nH]c1)C(=O)COc1ccc(C)cc1`, for which the EC50 came out at 21800 nM.
Same read-out and setting: with `CCN(Cc1cccs1)C(=O)COc1ccc(C)cc1O` the figure was 8 nM; with `Cc1ccc(OCC(=O)N(Cc2cccs2)c2ccn(C)n2)cc1`, 855 nM; with `CCN(Cc1ccccc1)C(=O)COc1ccc(C)cc1`, 1880 nM.
On the same count and under the same terms, with `COc1ccc2oc(C(=O)N(Cc3cccs3)c3ccn[nH]3)cc2c1` the figure was 1.1 nM; with `Cc1ccc(OCC(=O)N(Cc2cccs2)c2c(C)n[nH]c2C)cc1`, 0.3 nM; with `COc1ccc(OCC(=O)N(Cc2cccs2)c2cc[nH]n2)cc1`, 3.7 nM.
As for `CCN(Cc1cccs1)C(=O)COc1ccccc1C`, the concentration for a half-maximal effect (EC50) was determined as 192 nM.
On to `COCCN(Cc1cccs1)C(=O)COc1ccc(C)cc1`, for which the half-maximal effective concentration (EC50) is 400 nM.
Still for that read-out and setting: with `Cc1ccc(OCC(=O)N(Cc2cccs2)C(C)(C)C)cc1` the figure was 11000 nM; with `Cc1ccc(OCC(=O)N(Cc2cccs2)c2ccncc2)cc1`, 52 nM; with `Cc1ccc(OCC(=O)N(Cc2cccs2)C(C)C)cc1`, 70 nM.
On to `CCN(Cc1cccs1)C(=O)C[C@H](O)c1ccccc1`, for which the EC50 is 52000 nM.
The same measure, in the same setting: with `CCC(C)N(Cc1cccs1)C(=O)COc1ccc(C)cc1` (configuration not stated) the figure was 2000 nM; with `CCN(Cc1cccs1)C(=O)c1cc2cc(C)ccc2[nH]1`, 2000 nM; with `Cc1ccc(OCC(=O)N(C)Cc2cccs2)cc1`, 400 nM.
Same read-out and setting: with `CCN(Cc1cccnc1)C(=O)COc1ccc(C)cc1` the figure was 15400 nM.
Same read-out and setting: with `CCN(Cc1cccs1)C(=O)COc1ccccc1` the figure was 1400 nM; with `CCCc1ccc(OCC(=O)N(CC)Cc2cccs2)cc1`, 1810 nM; with `CCN(Cc1nccs1)C(=O)COc1ccc(C)cc1`, 3060 nM.
Consider `CCN(Cc1cccs1)C(=O)COc1ccc(Cl)cc1`, for which the EC50 is 39 nM.
In the case of `Cc1ccc(OCC(=O)N(Cc2cccs2)CC(C)C)cc1`, the concentration for a half-maximal effect (EC50) stood at 900 nM.
The same measure, in the same setting: with `CCN(Cc1cncs1)C(=O)COc1ccc(C)cc1` the figure was 1100 nM.

The next assay relates to Homo sapiens. As to the kind of experiment: In vivo agonist activity at human TRPM8 in trained human subjects assessed as concentration required to deliver cooling sensation equivalent to 45 uM WS-3 by measuring cooling intensity.
Details: not given
It is filed as functional.
Consider `Cc1ccc(OCC(=O)N(Cc2cccs2)c2ccccc2)cc1`, for which the Activity came out at 15 µM.
Still for that read-out and setting: with `CCN(Cc1cccs1)C(=O)COc1ccc(C)cc1O` the figure was 3 µM.
The same measure, in the same setting: with `COc1ccc2oc(C(=O)N(Cc3cccs3)c3ccn[nH]3)cc2c1` the figure was 5 µM.
